Assays:
COX-1 = target: T1, COX-1 (Homo sapiens, UniProt P23219); test: COX-1 activity in human whole blood (TXB2 by EIA after calcium ionophore A23187); assay type: cell-based; details: 24 h at 37° C., A23187 25 μM, TXB2 levels
T1 construct: Fresh blood from healthy volunteers; from tissue; host or cells: fresh heparinized human whole blood from healthy volunteers
Procedure: (§1) COX-1 and COX-2 Activities in Human Whole Blood
Fresh blood from healthy volunteers who had not taken any non-steroidal anti-inflammatory drugs for at least 7 days prior to blood extraction was collected in heparinized tubes (20 units of heparin per ml). For the COX-1 activity determination, 500 μl aliquots of blood were incubated with either 5 μl vehicle (dimethylsulphoxide) or 5 μl of a test compound for 24 h at 37° C. Calcium ionophore A23187 (25 μM) was added 20 min before stopping the incubation. Plasma was separated by centrifugation (10 min at 13000 rpm) and kept at −30° C. until TXB2 levels were measured using an enzyme immunoassay kit (EIA).
The effect of the compounds was evaluated by incubating each compound at five to six different concentrations with triplicate determinations. IC50 values were obtained by non-linear regression using InPlot, GraphPad software on an IBM computer.

COX-2 = target: T2, COX-2 (Homo sapiens, UniProt P35354); test: COX-2 activity in human whole blood (PGE2 by EIA after LPS induction); assay type: cell-based; details: for IC50: LPS 10 μg/ml, 24 h at 37° C., PGE2 levels
T2 construct: incubated in the presence of LPS (10 μg/ml) for 24 h at 37° C. in order to induce the COX-2 expression; from tissue; host or cells: fresh heparinized human whole blood from healthy volunteers, LPS-stimulated
T2 sequence (P35354 18-604): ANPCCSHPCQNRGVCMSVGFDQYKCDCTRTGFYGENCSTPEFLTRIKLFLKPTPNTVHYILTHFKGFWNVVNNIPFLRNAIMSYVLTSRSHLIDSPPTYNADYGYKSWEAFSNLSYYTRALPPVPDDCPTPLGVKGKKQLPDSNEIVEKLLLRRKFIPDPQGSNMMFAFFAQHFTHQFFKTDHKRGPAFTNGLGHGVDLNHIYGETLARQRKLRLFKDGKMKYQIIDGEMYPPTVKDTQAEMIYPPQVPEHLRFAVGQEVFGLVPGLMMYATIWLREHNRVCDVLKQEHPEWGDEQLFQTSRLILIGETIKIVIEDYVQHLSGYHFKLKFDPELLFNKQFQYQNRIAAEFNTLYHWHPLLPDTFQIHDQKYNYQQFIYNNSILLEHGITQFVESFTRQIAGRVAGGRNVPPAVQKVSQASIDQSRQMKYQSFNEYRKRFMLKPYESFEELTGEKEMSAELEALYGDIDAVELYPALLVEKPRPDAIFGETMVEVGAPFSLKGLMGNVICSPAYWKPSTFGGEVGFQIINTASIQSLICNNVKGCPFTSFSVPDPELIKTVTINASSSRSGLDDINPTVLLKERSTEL
Procedure: as §1
For the COX-2 activity determination, 500 μl aliquots of blood were incubated in the presence of LPS (10 μg/ml) for 24 h at 37° C. in order to induce the COX-2 expression (Patriagnani et al., J. Pharm. Exper. Ther. 271; 1705-1712 (1994)). Plasma was separated by centrifugation (10 min at 13000 rpm) and kept at −30° C. until PGE2 levels were measured using an enzyme immunoassay kit (EIA). The effects of inhibitors were studied by incubating each compound (5 μl aliquots) at five to six different concentrations with triplicate determinations in the presence of LPS for 24 hours. IC50 values were obtained by non-linear regression using InPlot, GraphPad software on an IBM computer.

T1 sequence (P23219 24-599): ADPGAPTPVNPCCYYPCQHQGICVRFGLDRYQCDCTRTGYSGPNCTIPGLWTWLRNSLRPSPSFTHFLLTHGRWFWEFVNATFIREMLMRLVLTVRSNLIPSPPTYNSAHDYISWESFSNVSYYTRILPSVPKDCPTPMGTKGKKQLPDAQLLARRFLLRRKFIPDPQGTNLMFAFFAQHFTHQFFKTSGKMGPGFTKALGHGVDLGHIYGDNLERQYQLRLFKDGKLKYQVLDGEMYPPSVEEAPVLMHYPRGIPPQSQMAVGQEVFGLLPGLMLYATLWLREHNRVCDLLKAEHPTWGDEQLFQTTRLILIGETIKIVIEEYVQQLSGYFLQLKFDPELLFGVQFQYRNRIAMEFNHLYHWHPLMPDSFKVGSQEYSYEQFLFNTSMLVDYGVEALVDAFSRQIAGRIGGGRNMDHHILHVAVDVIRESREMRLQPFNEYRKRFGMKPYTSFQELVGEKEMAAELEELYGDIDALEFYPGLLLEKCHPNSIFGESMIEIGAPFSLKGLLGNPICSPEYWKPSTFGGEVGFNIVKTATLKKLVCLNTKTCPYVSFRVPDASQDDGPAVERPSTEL

`Cc1ccc(-c2ncc(Cl)cc2-c2ccc([S+](C)[O-])cc2)cn1` (racemic) [5-chloro-6′methyl-3-[4-(methylsulfinyl)phenyl]-2,3′-bipyridine (racemate), 5-Chloro-6′-methyl-3-[4-(methylsulfinyl)phenyl]-2,3′-bipyridine] was tested, and the IC50 (COX-1) was 45.5 µM, the IC50 (COX-2) was 3.7 µM and the “Ratio COX-1/COX-2” value (COX-2; ratio of COX-1/COX-2 IC50 values) was 12.3.

`Cc1ccc(-c2ncc(Cl)cc2-c2ccc([S+](C)[O-])cc2)cn1` (single isomer, unassigned) [5-chloro-6′methyl-3-[4-(methylsulfinyl)phenyl]-2,3′-bipyridine (Enantiomer 1a), 5-Chloro-6′-methyl-3-[4-(methylsulfinyl)phenyl]-2,3′-bipyridine (Enantiomer 1a)] gave an IC50 (COX-1) of 20.2 µM.

Work on `Cc1ccc(-c2ncc(Cl)cc2-c2ccc([S+](C)[O-])cc2)cn1` (single isomer, unassigned) [5-chloro-6′methyl-3-[4-(methylsulfinyl)phenyl]-2,3′-bipyridine (Enantiomer 1b), 5-Chloro-6′-methyl-3-[4-(methylsulfinyl)phenyl]-2,3′-bipyridine (Enantiomer 1b)] yielded an IC50 (COX-1) of 77.8 µM and an IC50 (COX-2) of 3.5 µM.

— patent US20060229338A1, “2,3'-bipyridines derivatives as selective cox-2 inhibitors” (priority 2003, published 2006)
